For 46 compounds, logP results are on record in the OPERA property sets (Mansouri et al. 2018).

By logP is commonly meant a log measure of how a compound divides between an organic and an aqueous phase. Higher therefore signals higher lipophilicity. Regarding `CC(C(=O)O)c1ccc(-c2nc(C(N)=O)cs2)cc1` (stereo unspecified), the logP was 2.17. Consider `Cc1cnc(-c2ccc(C(C)C(=O)O)cc2)s1` (stereo unspecified), for which the logP was 3.15. Turning to `C=CCc1csc(-c2ccc(C(C)C(=O)O)cc2)n1` (stereo unspecified), the log partition coefficient (logP) stood at 4.11. Then `CCc1csc(-c2ccc(C(C)C(=O)O)cc2Cl)n1` (stereo unspecified), with 4.28; and `CCc1csc(-c2ccc(C(C)C(=O)O)cc2)n1` (stereo unspecified), with 3.75; and `CC(C(=O)O)c1ccc(-c2nccs2)c([N+](=O)[O-])c1` (stereo unspecified), with 2.06. In turn, `CCCCc1csc(-c2ccc(C(C)C(=O)O)cc2)n1` (stereo unspecified) displayed a logP of 4.83. As for `CC(C(=O)O)c1ccc(-c2nc(-c3ccccc3)cs2)cc1` (stereo unspecified), the logP was 4.95. Take `CCc1nc(-c2ccc(C(C)C(=O)O)cc2)sc1C` (stereo unspecified): the log partition coefficient (logP) came to 3.99. On to `CCCCc1csc(-c2ccc(C(C)C(=O)O)cc2F)n1` (stereo unspecified), for which the log partition coefficient (logP) is 5.24. Consider `CC(C(=O)O)c1ccc(-c2nccs2)c(Br)c1` (stereo unspecified), for which the logP amounted to 3.35. As for `Cc1nc(-c2ccc(C(C)C(=O)O)cc2)sc1C` (stereo unspecified), the logP turned out to be 3.36. Compound `Cc1csc(-c2ccc(C(C)C(=O)O)cc2)n1` (stereo unspecified) displayed a lipophilicity (logP) of 3.03. Next, `CC(C)c1csc(-c2ccc(C(C)C(=O)O)cc2F)n1` (stereo unspecified): 4.62.

With `CCc1cnc(-c2ccc(C(C)C(=O)O)cc2)s1` (stereo unspecified), the logP came out at 3.72. Next, `Cc1cnc(-c2ccc(C(C)C(=O)O)cc2Cl)s1` (stereo unspecified): 3.66; `CCc1nc(-c2ccc(C(C)C(=O)O)cc2F)sc1C` (stereo unspecified): 4.44; `CC(C(=O)O)c1ccc(-c2nccs2)c(Cl)c1` (stereo unspecified): 3.39. Then `Cc1nc(-c2ccc(C(C)C(=O)O)cc2Cl)sc1C` (stereo unspecified), with 3.94; and `COCc1csc(-c2ccc(C(C)C(=O)O)cc2)n1` (stereo unspecified), with 2.56; and `CC(C(=O)O)c1ccc(-c2nccs2)c(F)c1` (stereo unspecified), with 3.14. In turn, `CNC(=O)c1csc(-c2ccc(C(C)C(=O)O)cc2)n1` (stereo unspecified) had a logP of 2.45. `Cc1nc(-c2ccc(C(C)C(=O)O)cc2F)sc1C` (stereo unspecified) had a logP of 3.74. Take `Cc1cnc(-c2ccc(C(C)C(=O)O)cc2F)s1` (stereo unspecified): the lipophilicity (logP) came out at 3.55. As for `CC(C(=O)O)c1ccc(-c2nccs2)c(C(F)(F)F)c1` (stereo unspecified), the logP was 3.06. Next, `CC(C(=O)O)c1ccc(-c2nccs2)cc1` (stereo unspecified): 2.79; `Cc1cc(C(C)C(=O)O)ccc1-c1nccs1` (stereo unspecified): 3.06; `Cc1csc(-c2ccc(C(C)C(=O)O)cc2F)n1` (stereo unspecified): 3.52.

Turning to `CCc1csc(-c2ccc(C(C)C(=O)O)cc2F)n1` (stereo unspecified), the logP was found to be 4.16. Turning to `CC(C)c1csc(-c2ccc(C(C)C(=O)O)cc2Cl)n1` (stereo unspecified), the logP worked out at 4.78. Next, `CC(C(=O)O)c1ccc(-c2nccs2)c(O)c1` (stereo unspecified): 3.18; `C=Cc1csc(-c2ccc(C(C)C(=O)O)cc2)n1` (stereo unspecified): 3.62. Consider `CC(=O)c1csc(-c2ccc(C(C)C(=O)O)cc2)n1` (stereo unspecified), for which the log partition coefficient (logP) is 2.65.

For the compound `CC(C(=O)O)c1ccc(-c2nc(CO)cs2)cc1` (stereo unspecified), the logP came out at 2.25. As to `CC(C)c1csc(-c2ccc(C(C)C(=O)O)cc2)n1` (stereo unspecified), the logP turned out to be 4.29. Regarding `CC(C(=O)O)c1ccc(-c2nc3c(s2)CCCC3)cc1` (stereo unspecified), the logP is 4.41.

`CCc1cnc(-c2ccc(C(C)C(=O)O)cc2F)s1` (stereo unspecified) showed a logP of 4.1.

For the compound `CC(C(=O)O)c1ccc(-c2nc(C(F)(F)F)cs2)cc1` (stereo unspecified), the logP was 3.78. `CCc1cnc(-c2ccc(C(C)C(=O)O)cc2Cl)s1` (stereo unspecified) returned a logP of 4.39. Compound `COc1cc(C(C)C(=O)O)ccc1-c1nccs1` (stereo unspecified) yielded a logP of 2.47.

As for `CCc1nc(-c2ccc(C(C)C(=O)O)cc2Cl)sc1C` (stereo unspecified), the lipophilicity (logP) worked out at 4.62. With `CCCCc1csc(-c2ccc(C(C)C(=O)O)cc2Cl)n1` (stereo unspecified), the log partition coefficient (logP) was 5.36. `CC(C(=O)O)c1ccc(-c2nccs2)c(N)c1` (stereo unspecified) yielded a logP of 2.45. For the compound `CSc1cc(C(C)C(=O)O)ccc1-c1nccs1` (stereo unspecified), the log partition coefficient (logP) was 3.02. Then `CC(C(=O)O)c1ccc(-c2nc(C(=O)N(C)C)cs2)cc1` (stereo unspecified), with 2.15; and `Cc1csc(-c2ccc(C(C)C(=O)O)cc2Cl)n1` (stereo unspecified), with 3.65.
